Assay results published in patent US8859503B2, “Methods and compositions targeting viral and cellular ITAM motifs, and use of same in identifying compounds with therapeutic activity” (priority 2005, dated 2014).
Entries after “also recorded” stand apart in the source; their conditions may differ. Ends that are not written are not given here. * marks the point of attachment. Biotin = O=C1N[C@H]2[C@H](CS[C@H]2CCCCC(=O)*)N1

Key:
[1] = tested on: Env-expressing NMuMG cells; assay: Three-dimensional Matrigel cultures of MMTV Env-expressing NMuMG cells (acinar structure morphology/size); type: cell-based, murine
Protocol: NMuMG cells (5×10^3 cells per chamber) were cultured on Matrigel® (BD Biosciences) cushions. Assay medium (DMEM/F12 supplemented with 2% donor horse serum, 10 μg/ml insulin, 1 ng/ml cholera toxin, 100 μg/ml hydrocortisone, 50 U/ml penicillin, and 50 μg/ml streptomycin) containing 2% Matrigel was replaced every 4 days. The structures were analyzed, at a magnification of 20, on a Zeiss Axiovert 200M equipped with PCO SensiCam video camera and Slidebook® software (Intelligent Imaging Innovations). Cell staining was performed with rat anti-human Keratin-18 (Lab Vision), rat anti-human E-cadherin and goat anti-rat IgG-FITC conjugated antibodies (Jackson ImmunoResearch Laboratories), or goat anti-rat IgG-Alexa-555 conjugated antibodies (Molecular Probes). Quantification of structure size was performed using a 10×50-μm grid reticule (Fisher Scientific) and 20-100 structures were counted from each chamber. The inhibitors PP2 and Piceatannol (EMD) were added on day 3 of culture, and pictures were taken on day 6. In apoptosis assays, TNF (R&D Systems) or TRAIL (BIOMOL Research Laboratories, Inc) were added on day 5 of culture, and pictures were taken on day 6. TUNEL assay was performed using a kit from Roche Applied Science (Indianapolis, Ind.).
(§1) NmuMG (wild-type or Env-expressing) or Mm5MT cells (10^4) were incubated on Matrigel (BD Labware) for six days, as described previously. Cells were treated with or without ITAM peptide (10 μM) or the Syk inhibitors piceatannol (1 μg/ml) and SI-31 (100 nM) (EMD). The acinar structures were analyzed and captured, at a magnification of 20×, on a Zeiss Axiovert 200M equipped with PCO SensiCam video camera and Slidebook v4 software (Intelligent Imaging Innovations). Three-dimensional structures >50 μm were considered enlarged. Data shown is based on size of 50 random acini.

[2] = tested on: Mm5MT cells; assay: Three-dimensional Matrigel cultures of MMTV+ Mm5MT tumor cells; type: cell-based; conditions: for reversion to round 3D phenotype: six days
Protocol: as §1, with “Cells were treated with or without ITAM peptide (10 μM) or the Syk inhibitors piceatannol (1 μg/ml) and SI-31 (100 nM) (EMD).” left out

[3] = Water solubility of the ITAM fragment; type: physicochemical
[4] = tested on: NIH3T3 cells expressing the ITAM-containing MAHB chimera; assay: Soft agar colony formation assay of NIH3T3 cells expressing the ITAM-containing MAHB chimera; type: cell-based, murine
Protocol: NIH3T3 cells expressing the ITAM-containing MAHB chimera (1×10^4) were suspended in 0.3% agar in DMEM containing 10% FBS. Cells from each transduction group were plated in 6-well plates pre-coated with 0.6% agar base in DMEM containing 10% FBS. Cells were fed with fresh top agar (0.3% agar in DMEM with 10% FBS, with or without ITAM peptide) every 5 days. Colonies were counted and measured using a graduated reticule under microscope at 10× magnification on day 21.

[5] = tested on: mouse splenic B cells; assay: B lymphocyte stimulation and proliferation ([3H] thymidine incorporation); type: cell-based; conditions: 20 μM peptide
Protocol: Proliferation of mouse splenic B cells: cells (5×10^5) were incubated for 48 h in the presence or absence of 20 μM peptide and stimulated with 10 μg/ml anti-BCR antibodies (Jackson ImmunoResearch Laboratories), LPS (Sigma) or anti-CD40 antibodies (BD Pharmingen). [^3H] Thymidine incorporation (1 μCi/well) was measured in the last 4 h of the experiment.

[6] = tested on: ITAM-based BCR signaling (tyrosine phosphorylation) in splenic B cells; assay: Western blotting for tyrosine phosphorylation after anti-BCR stimulation; type: cell-based, mouse
Protocol: Splenic B cells (10^7) were pre-incubated with 0-100 μM ITAM peptide for 3 h at 37° C. and then stimulated with anti-BCR antibodies as above for further 5 min. Lysates (20 μg/lane) were run on SDS-PAGE, blotted and detected with anti-phosphotyrosine antibody (4G10-HRP; Upstate Biotech). Molecular weights shown are based on the molecular weight markers.

[7] = tested on: RBL-2H3 cells; assay: FcεR1-mediated degranulation of RBL-2H3 cells (hexosaminidase activity); type: cell-based; conditions: ITAM peptide 25 μM; anti-DNP IgE 1 μg/ml, DNP-HSA 10 ng/ml
Protocol: The effect of ITAM peptide on mast cell function was evaluated by degranulation induced by FcεR1 cross-linking. RBL-2H3 cells (5×10^4) were incubated overnight with anti-DNP IgE (1 μg/ml). Subsequently, degranulation was induced with DNP-HSA (10 ng/ml, 2 h), in the presence or absence of ITAM peptide (25 μM). Degranulation, as detected by hexosaminidase activity, is depicted as percent of maximal activity obtained from whole cell lysates.

[8] = target: T1, Syk (Mus musculus, UniProt P48025); assay: Peptide:Syk binding assay (biotin-peptide pull-down from Bal-17 B cell lysates); conditions: peptide 50 μM; Bal-17 whole cell lysates; n=3
T1 construct: Whole cell lyastes of Bal-17 B cells (3×10^7) were used; endogenous in cells; host or cells: Bal-17 B cells (whole cell lysate)
Protocol: Whole cell lyastes of Bal-17 B cells (3×10^7) were used for quantification of ITAM peptide interactions. Equivalent cell lysates were mixed with either biotin-KRPPAVLL (control peptide; SEQ ID No 46) or biotin-KRPPYVLL (ITAM peptide; SEQ ID No 47) in concentration between 10-50 μM. Pull-downs were performed with Immobilized Neutravidin Protein (Pierce), as previously described. The resulting lysate pull-downs were run on SDS-PAGE were detected by Western blotting with rabbit anti-Syk antibody (N-19, Santa Cruz). Donkey anti-rabbit IgG-alkaline phosphatase conjugated antibody was used as a secondary antibody (Jackson ImmunoResearch Laboratories). For development and quantification, an ECF substrate was used followed by a scan using Storm 860 and analysis by ImageQuant 5.2 (all obtained from Amersham Biosciences).

[9] = target: T2, Syk-GFP (Mus musculus, UniProt P48025); assay: Co-localization of dsRed peptide chimeras with Syk-GFP in 293T cells by confocal microscopy; type: cell-based; conditions: transiently transfected human 293T cells
T2 construct: host or cells: Human 293T cells, transient transfection
From the text: Peptide conjugates were produced by QuikChange XL® kit from Stratagene. The dsRed2-C1 construct (BD Clontech) was modified using the following primers: dsRed.YVLL: 5′-[…]-3′ (SEQ ID No 42); and 5′-[…]-3 (SEQ ID No 43).
dsRed.KRPPYVLL: 5′-[…]-3′ (SEQ ID No 44); and 5′-[…]-3′ (SEQ ID No 45). The Syk-eGFP construct was a provided by Dr. Robert Geahlen (Purdue University).
For laser scanning microscopy a Zeiss LSM510 META laser scanning confocal module on a Zeiss Axiovert 200M inverted microscope was used. Objective used: C-APO 40×/1.2 water DIC. Lasers: 488 nm laser line from Argon laser (30 mW) for eGFP excitation; 543 nm laser line from HeNe laser (1 mW) for dsRed excitation. Analysis was performed on Zeiss LSM510 META v3.2 software.

T2 sequence (P48025 whole entry): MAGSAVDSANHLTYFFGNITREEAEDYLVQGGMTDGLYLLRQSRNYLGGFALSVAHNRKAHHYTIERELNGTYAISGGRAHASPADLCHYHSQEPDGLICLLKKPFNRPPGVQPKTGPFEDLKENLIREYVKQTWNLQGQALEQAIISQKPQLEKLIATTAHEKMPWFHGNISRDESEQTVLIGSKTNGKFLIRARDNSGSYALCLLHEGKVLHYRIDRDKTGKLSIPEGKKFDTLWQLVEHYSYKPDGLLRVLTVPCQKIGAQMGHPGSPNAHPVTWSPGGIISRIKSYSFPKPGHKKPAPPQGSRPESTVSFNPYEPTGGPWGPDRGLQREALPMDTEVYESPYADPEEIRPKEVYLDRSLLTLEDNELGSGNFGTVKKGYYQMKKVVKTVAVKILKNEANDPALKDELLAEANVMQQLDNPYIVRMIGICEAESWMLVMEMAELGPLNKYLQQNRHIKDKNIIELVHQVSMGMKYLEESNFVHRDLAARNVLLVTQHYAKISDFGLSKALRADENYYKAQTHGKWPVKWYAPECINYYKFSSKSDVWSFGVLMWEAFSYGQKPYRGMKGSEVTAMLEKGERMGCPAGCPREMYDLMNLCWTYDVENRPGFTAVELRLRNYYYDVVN
T1 sequence (P48025 whole entry): as above

With `CC(C)(C)n1nc(-c2ccc(Cl)cc2)c2c(N)ncnc21` [PP2] the “morphological changes associated with Env transformation” value ([1]; Env+ NMuMG 3D cultures, inhibitor 500 ng/ml added on day 3, imaged on day 6) was “sufficient to block morphological changes associated with Env transformation” and the “phenotypic reversal of transformed phenotype to normal round acini” value (shortened to “phenotypic reversal”) ([1]; Src inhibitor PP2, concentration not printed for this experiment) was “effective in phenotypic reversal”.
In the case of `Cn1cc(C=C2C(=O)Nc3ccc(S(N)(=O)=O)cc32)c2ccccc21` [SI-31, reference compound], the “phenotypic reversal” value ([1]; SI-31 100 nM, six days) is reported as “effective in phenotypic reversal” and the “reversion to round 3D phenotype” value ([2]; SI-31 100 nM) is reported as “readily apparent”.
In the case of Ac-KRPPYVLL [KRPPYVLL], the water solubility [3] is reported as “water-soluble”.
For Ac-KRPPYVLL-OH [ITAM peptide], the “size and number of colonies formed” value ([4]; ITAM peptide 0-20 μM added with feeding media, colonies >75 μm scored on day 21) was “reduction in both size and number of colonies formed”, the “colony formation of ITAM+ fibroblasts” value ([4]; chronic treatment with ITAM peptide in feeding media) was “sufficient to reduce colony formation” and the “BCR-induced proliferation ([3H] thymidine incorporation)” value ([5]; 48 h, 10 μg/ml anti-BCR antibodies) was “inhibition of BCR-induced proliferation; also recorded: highly significant (p=0.0017)”. The “stimulation of B lymphocytes by LPS (non-ITAM)” value ([5]; LPS 20 μg/ml, data not shown) was “no significant effect”, the “stimulation of B lymphocytes through CD40 (non-ITAM)” value ([5]; anti-CD40 5 μg/ml, data not shown) was “no significant effect” and the “phenotypic reversal” value ([1]; ITAM peptide 10 μM, Env-expressing NMuMG on Matrigel six days) was “as effective in phenotypic reversal as the Src inhibitor PP2 and Syk inhibitors Piceatannol and SI-31”. The Mm5MT acini phenotype ([2]; 3D cultures on Matrigel six days, treated with ITAM peptide, Src or Syk inhibitors) was “exhibited a more round phenotype”, the “reversion to round 3D phenotype” value ([2]; ITAM peptide 20 μM (5-20 μM tested)) was “readily apparent” and the “tyrosine phosphorylation associated with ITAM-based BCR signaling” value ([6]; higher concentrations of the peptide) was “neither stimulatory nor inhibitory”. The “tyrosine phosphorylation associated with ITAM-based BCR signaling” value ([6]; relevant peptide concentrations (0-100 μM tested), 3 h pre-incubation, anti-BCR 5 min, data not shown) was “visibly reduced; also recorded: Inhibition of tyrosine phosphorylation was confirmed” and the “FcεRI-induced degranulation (hexosaminidase activity)” value [7] was “significantly inhibited; also recorded: significant reduction (p=0.093)”.
With Biotin-KRPPYVLL the “Syk detected in pull-down, over control peptide biotin-KRPPAVLL” value [8] was 1.5- to 2 fold.
In the case of “dsRed.KRPPYVLL: dsRed chimera protein with the entire 8 amino acid ITAM fragment (dsRed-KRPPYVLL)”, the “co-localization with Syk-GFP” value [9] is reported as “co-localization was still detected”.
With “dsRed.YVLL: dsRed chimera protein with 4 amino acids (YVLL) of the ITAM fragment (dsRed-YVLL)” the “co-localization with Syk-GFP” value [9] was “co-localization was readily observed”.
